What was measured:
protease = assay: Protease activity retention in detergent use solution (4000 ppm, 5 GPG water; peptidyl substrate, glycine buffer pH 9.0); assay type: biochemical; conditions: for Relative Protease Enzyme Activity: use solution at 120° F.
How it was run: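 Detergent use solutions at 4000 ppm in 5 GPG water were held at 120° F with stirring and sampled up to 4 h, with aliquots flash-frozen. Activity was read on a peptidyl substrate in glycine buffer pH 9.0 by absorbance against a calibration curve. Retention is % activity relative to the t=0 sample.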

lipase = assay: Lipase activity retention in detergent use solution (4000 ppm, 5 GPG water; p-nitrophenyl valerate, TRIS buffer pH 8.0); assay type: biochemical; conditions: for Relative Lipase Enzyme Activity in a Use Solution: Table 6E, room temperature; for Relative Lipase Enzyme Activity in a Use Solution of the All Ash Detergent Composition: Table 6F, all ash formula, 120º F.; for Relative Lipase Enzyme Activity: base formula
How it was run: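 Lipase stability was measured in a detergent use solution under conditions mimicking presoak or manual warewash, with stirring in a water bath. Aliquots were taken over time and flash-frozen. Thawed samples were diluted in TRIS buffer at pH 8.0 and assayed with p-nitrophenyl valerate as substrate on a plate reader. Activity is reported as % retained relative to the time=0 sample.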

[1] = phosphonate 0.3 wt-%, time 0 min
[2] = phosphonate 0.3 wt-%, time 5 min
[3] = phosphonate 0.3 wt-%, time 10 min
[4] = phosphonate 0.3 wt-%, time 20 min
[5] = phosphonate 0.3 wt-%, time 40 min
[6] = phosphonate 0.3 wt-%, time 60 min
[7] = phosphonate 0.3 wt-%, time 90 min
[8] = phosphonate 0.3 wt-%, time 120 min
[9] = phosphonate 0.3 wt-%, time 150 min
[10] = phosphonate 0.3 wt-%, time 180 min
[11] = phosphonate 0.3 wt-%, time 210 min
[12] = phosphonate 0.3 wt-%, time 240 min

Compound: O=C(O)CCC(CC(=O)O)(C(=O)O)P(=O)(O)O (stereo not shown) [PBTC, Phosphonebutane tricarboxylic acid]
- Relative Protease Enzyme Activity (protease; All Ash formula, phosphonate 0.3 wt-%, time 0 min): 100.00%
- Relative Protease Enzyme Activity (protease; All Ash formula, phosphonate 0.3 wt-%, time 5 min): 11.99%
- Relative Protease Enzyme Activity (protease; All Ash formula, phosphonate 0.3 wt-%, time 10 min): 3.18%
- Relative Protease Enzyme Activity (protease; All Ash formula, phosphonate 0.3 wt-%, time 20 min): −0.81%
- Relative Protease Enzyme Activity (protease; All Ash formula, phosphonate 0.3 wt-%, time 40 min): −1.79%
- Relative Protease Enzyme Activity (protease; All Ash formula, phosphonate 0.3 wt-%, time 60 min): −1.94%
- Relative Protease Enzyme Activity (protease; All Ash formula, phosphonate 0.3 wt-%, time 90 min): −1.57%
- Relative Protease Enzyme Activity (protease; All Ash formula, phosphonate 0.3 wt-%, time 120 min): −1.11%
- Relative Protease Enzyme Activity (protease; All Ash formula, phosphonate 0.3 wt-%, time 150 min): −1.04%
- Relative Protease Enzyme Activity (protease; All Ash formula, phosphonate 0.3 wt-%, time 180 min): −2.62%
- Relative Protease Enzyme Activity (protease; All Ash formula, phosphonate 0.3 wt-%, time 210 min): −3.07%
- Relative Protease Enzyme Activity (protease; All Ash formula, phosphonate 0.3 wt-%, time 240 min): −2.02%
- Relative Protease Enzyme Activity (protease; base formula, phosphonate 0.3 wt-%, time 0 min): 100.00%
- Relative Protease Enzyme Activity (protease; base formula, phosphonate 0.3 wt-%, time 5 min): 52.04%
- Relative Protease Enzyme Activity (protease; base formula, phosphonate 0.3 wt-%, time 10 min): 30.98%
- Relative Protease Enzyme Activity (protease; base formula, phosphonate 0.3 wt-%, time 20 min): 14.75%
- Relative Protease Enzyme Activity (protease; base formula, phosphonate 0.3 wt-%, time 40 min): 7.33%
- Relative Protease Enzyme Activity (protease; base formula, phosphonate 0.3 wt-%, time 60 min): 5.15%
- Relative Protease Enzyme Activity (protease; base formula, phosphonate 0.3 wt-%, time 90 min): 4.01%
- Relative Protease Enzyme Activity (protease; base formula, phosphonate 0.3 wt-%, time 120 min): 2.91%
- Relative Protease Enzyme Activity (protease; base formula, phosphonate 0.3 wt-%, time 150 min): 2.21%
- Relative Protease Enzyme Activity (protease; base formula, phosphonate 0.3 wt-%, time 180 min): 1.52%
- Relative Protease Enzyme Activity (protease; base formula, phosphonate 0.3 wt-%, time 210 min): 1.01%
- Relative Protease Enzyme Activity (protease; base formula, phosphonate 0.3 wt-%, time 240 min): 0.63%
- Relative Protease Enzyme Activity (protease; base formula, phosphonate 0.6 wt-%, time 0 min): 100.00%
- Relative Protease Enzyme Activity (protease; base formula, phosphonate 0.6 wt-%, time 5 min): 60.27%
- Relative Protease Enzyme Activity (protease; base formula, phosphonate 0.6 wt-%, time 10 min): 35.81%
- Relative Protease Enzyme Activity (protease; base formula, phosphonate 0.6 wt-%, time 20 min): 16.27%
- Relative Protease Enzyme Activity (protease; base formula, phosphonate 0.6 wt-%, time 40 min): 7.44%
- Relative Protease Enzyme Activity (protease; base formula, phosphonate 0.6 wt-%, time 60 min): 4.84%
- Relative Protease Enzyme Activity (protease; base formula, phosphonate 0.6 wt-%, time 90 min): 2.96%
- Relative Protease Enzyme Activity (protease; base formula, phosphonate 0.6 wt-%, time 120 min): 1.76%
- Relative Protease Enzyme Activity (protease; base formula, phosphonate 0.6 wt-%, time 150 min): 1.32%
- Relative Protease Enzyme Activity (protease; base formula, phosphonate 0.6 wt-%, time 180 min): 0.91%
- Relative Protease Enzyme Activity (protease; base formula, phosphonate 0.6 wt-%, time 210 min): 0.70%
- Relative Protease Enzyme Activity (protease; base formula, phosphonate 0.6 wt-%, time 240 min): 0.39%
- Relative Protease Enzyme Activity (protease; base formula, phosphonate at 0.1% elemental phosphorus, time 0 min): 100.00%
- Relative Protease Enzyme Activity (protease; base formula, phosphonate at 0.1% elemental phosphorus, time 5 min): 86.68%
- Relative Protease Enzyme Activity (protease; base formula, phosphonate at 0.1% elemental phosphorus, time 10 min): 55.40%
- Relative Protease Enzyme Activity (protease; base formula, phosphonate at 0.1% elemental phosphorus, time 20 min): 23.91%
- Relative Protease Enzyme Activity (protease; base formula, phosphonate at 0.1% elemental phosphorus, time 40 min): 8.20%
- Relative Protease Enzyme Activity (protease; base formula, phosphonate at 0.1% elemental phosphorus, time 60 min): 4.68%
- Relative Protease Enzyme Activity (protease; base formula, phosphonate at 0.1% elemental phosphorus, time 90 min): 2.99%
- Relative Protease Enzyme Activity (protease; base formula, phosphonate at 0.1% elemental phosphorus, time 120 min): 2.04%
- Relative Protease Enzyme Activity (protease; base formula, phosphonate at 0.1% elemental phosphorus, time 150 min): 1.54%
- Relative Protease Enzyme Activity (protease; base formula, phosphonate at 0.1% elemental phosphorus, time 180 min): 1.01%
- Relative Protease Enzyme Activity (protease; base formula, phosphonate at 0.1% elemental phosphorus, time 210 min): 0.73%
- Relative Protease Enzyme Activity (protease; base formula, phosphonate at 0.1% elemental phosphorus, time 240 min): 0.42%
- enzyme activity of amine salt of the phosphonate versus non-neutralized phosphonate (protease; phosphonate neutralized with an amine, such as triethanolamine): much improved enzyme activity
- Relative Lipase Enzyme Activity in a Use Solution (lipase; [1]): 100.00%
- Relative Lipase Enzyme Activity in a Use Solution (lipase; [2]): 84.82%
- Relative Lipase Enzyme Activity in a Use Solution (lipase; [3]): 101.70%
- Relative Lipase Enzyme Activity in a Use Solution (lipase; [4]): 98.72%
- Relative Lipase Enzyme Activity in a Use Solution (lipase; [5]): 109.31%
- Relative Lipase Enzyme Activity in a Use Solution (lipase; [6]): 103.07%
- Relative Lipase Enzyme Activity in a Use Solution (lipase; [7]): 104.82%
- Relative Lipase Enzyme Activity in a Use Solution (lipase; [8]): 102.36%
- Relative Lipase Enzyme Activity in a Use Solution (lipase; [9]): 105.67%
- Relative Lipase Enzyme Activity in a Use Solution (lipase; [10]): 81.94%
- Relative Lipase Enzyme Activity in a Use Solution (lipase; [11]): 101.51%
- Relative Lipase Enzyme Activity in a Use Solution (lipase; [12]): 110.35%
- Relative Lipase Enzyme Activity in a Use Solution of the All Ash Detergent Composition (lipase; [1]): 100.00%
- Relative Lipase Enzyme Activity in a Use Solution of the All Ash Detergent Composition (lipase; [2]): 44.27%
- Relative Lipase Enzyme Activity in a Use Solution of the All Ash Detergent Composition (lipase; [3]): 26.34%
- Relative Lipase Enzyme Activity in a Use Solution of the All Ash Detergent Composition (lipase; [4]): 13.39%
- Relative Lipase Enzyme Activity in a Use Solution of the All Ash Detergent Composition (lipase; [5]): 3.62%
- Relative Lipase Enzyme Activity in a Use Solution of the All Ash Detergent Composition (lipase; [6]): 1.82%
- Relative Lipase Enzyme Activity in a Use Solution of the All Ash Detergent Composition (lipase; [7]): 0.36%
- Relative Lipase Enzyme Activity in a Use Solution of the All Ash Detergent Composition (lipase; [8]): 0.52%
- Relative Lipase Enzyme Activity in a Use Solution of the All Ash Detergent Composition (lipase; [9]): 2.28%
- Relative Lipase Enzyme Activity in a Use Solution of the All Ash Detergent Composition (lipase; [10]): 2.33%
- Relative Lipase Enzyme Activity in a Use Solution of the All Ash Detergent Composition (lipase; [11]): 3.25%
- Relative Lipase Enzyme Activity in a Use Solution of the All Ash Detergent Composition (lipase; [12]): 3.58%
- Relative Lipase Enzyme Activity (lipase; phosphonate 0.3 wt-%, use solution at 120° F., time 0 min): 100.00%
- Relative Lipase Enzyme Activity (lipase; phosphonate 0.3 wt-%, use solution at 120° F., time 5 min): 73.63%
- Relative Lipase Enzyme Activity (lipase; phosphonate 0.3 wt-%, use solution at 120° F., time 10 min): 66.55%
- Relative Lipase Enzyme Activity (lipase; phosphonate 0.3 wt-%, use solution at 120° F., time 20 min): 48.22%
- Relative Lipase Enzyme Activity (lipase; phosphonate 0.3 wt-%, use solution at 120° F., time 40 min): 26.23%
- Relative Lipase Enzyme Activity (lipase; phosphonate 0.3 wt-%, use solution at 120° F., time 60 min): 15.51%
- Relative Lipase Enzyme Activity (lipase; phosphonate 0.3 wt-%, use solution at 120° F., time 90 min): 7.72%
- Relative Lipase Enzyme Activity (lipase; phosphonate 0.3 wt-%, use solution at 120° F., time 120 min): 3.90%
- Relative Lipase Enzyme Activity (lipase; phosphonate 0.3 wt-%, use solution at 120° F., time 150 min): 2.70%
- Relative Lipase Enzyme Activity (lipase; phosphonate 0.3 wt-%, use solution at 120° F., time 180 min): −0.75%
- Relative Lipase Enzyme Activity (lipase; phosphonate 0.3 wt-%, use solution at 120° F., time 210 min): −1.86%
- Relative Lipase Enzyme Activity (lipase; phosphonate 0.3 wt-%, use solution at 120° F., time 240 min): −2.20%
- Relative Lipase Enzyme Activity (lipase; phosphonate 0.6 wt-%, use solution at 120º F., time 0 min): 100.00%
- Relative Lipase Enzyme Activity (lipase; phosphonate 0.6 wt-%, use solution at 120º F., time 5 min): 61.52%
- Relative Lipase Enzyme Activity (lipase; phosphonate 0.6 wt-%, use solution at 120º F., time 10 min): 62.20%
- Relative Lipase Enzyme Activity (lipase; phosphonate 0.6 wt-%, use solution at 120º F., time 20 min): 44.99%
- Relative Lipase Enzyme Activity (lipase; phosphonate 0.6 wt-%, use solution at 120º F., time 40 min): 31.89%
- Relative Lipase Enzyme Activity (lipase; phosphonate 0.6 wt-%, use solution at 120º F., time 60 min): 23.30%
- Relative Lipase Enzyme Activity (lipase; phosphonate 0.6 wt-%, use solution at 120º F., time 90 min): 16.36%
- Relative Lipase Enzyme Activity (lipase; phosphonate 0.6 wt-%, use solution at 120º F., time 120 min): 12.11%
- Relative Lipase Enzyme Activity (lipase; phosphonate 0.6 wt-%, use solution at 120º F., time 150 min): 9.68%
- Relative Lipase Enzyme Activity (lipase; phosphonate 0.6 wt-%, use solution at 120º F., time 180 min): 6.06%
- Relative Lipase Enzyme Activity (lipase; phosphonate 0.6 wt-%, use solution at 120º F., time 210 min): 6.80%
- Relative Lipase Enzyme Activity (lipase; phosphonate 0.6 wt-%, use solution at 120º F., time 240 min): 5.96%
- Relative Lipase Enzyme Activity (lipase; phosphonate at 0.1% elemental phosphorus, at 120º F. or at room temperature (as titled), time 0 min): 100.00%
- Relative Lipase Enzyme Activity (lipase; phosphonate at 0.1% elemental phosphorus, at 120º F. or at room temperature (as titled), time 5 min): 87.75%
- Relative Lipase Enzyme Activity (lipase; phosphonate at 0.1% elemental phosphorus, at 120º F. or at room temperature (as titled), time 10 min): 73.69%
- Relative Lipase Enzyme Activity (lipase; phosphonate at 0.1% elemental phosphorus, at 120º F. or at room temperature (as titled), time 20 min): 56.53%
- Relative Lipase Enzyme Activity (lipase; phosphonate at 0.1% elemental phosphorus, at 120º F. or at room temperature (as titled), time 40 min): 25.32%
- Relative Lipase Enzyme Activity (lipase; phosphonate at 0.1% elemental phosphorus, at 120º F. or at room temperature (as titled), time 60 min): 19.97%
- Relative Lipase Enzyme Activity (lipase; phosphonate at 0.1% elemental phosphorus, at 120º F. or at room temperature (as titled), time 90 min): 15.95%
- Relative Lipase Enzyme Activity (lipase; phosphonate at 0.1% elemental phosphorus, at 120º F. or at room temperature (as titled), time 120 min): 12.52%
- Relative Lipase Enzyme Activity (lipase; phosphonate at 0.1% elemental phosphorus, at 120º F. or at room temperature (as titled), time 150 min): 11.11%
- Relative Lipase Enzyme Activity (lipase; phosphonate at 0.1% elemental phosphorus, at 120º F. or at room temperature (as titled), time 180 min): 10.01%
- Relative Lipase Enzyme Activity (lipase; phosphonate at 0.1% elemental phosphorus, at 120º F. or at room temperature (as titled), time 210 min): 9.16%
- Relative Lipase Enzyme Activity (lipase; phosphonate at 0.1% elemental phosphorus, at 120º F. or at room temperature (as titled), time 240 min): 9.12%
